pEC50: −log10 of the molar value. Several values for one entry are separate records, joined by “and”; a condition that tells them apart may be missing. Equal entries are not always repeated.
Assays:
[1] = Pharmacokinetic experiment in plasma; type: in vivo; settings: male ICR mice, Compound 6 1.5 mg/kg ip
Description: (§1) Male ICR mice weighing 20-22 g were intraperitoneally injected with Compound 6 (1.5 mg/kg), and then blood was taken from the orbit at 5 min, 10 min, 15 min, 30 min, 1 h, 2 h, 4 h, 6 h, 8 h, 12 h, and 24 h. The heparin anticoagulant was added, placed on ice, and centrifuged at 7000 r/min for 7 min. The plasma was separated for use. 60 μl of acetonitrile was added to 20 μL of the plasma sample obtained after administration, to precipitate the protein. After high-speed centrifugation at 13300 r/min for 7 min, 60 μl of the supernatant was taken and centrifuged at 13300 r/min for 4 min. 5 μl of the supernatant was taken for UPLC/MS analysis. Plasma pharmacokinetics was analyzed by Winnolin software and fitted by a non-compartmental model.
as §1, with “Compound 20” for “Compound 6”, “protein. […]” for “protein. After high-speed centrifugation at 13300 r/min for 7 min, 60 μl of the supernatant was taken and centrifuged at 13300 r/min for 4 min. 5 μl of the supernatant was taken for UPLC/MS analysis.”

EV71 [2] = assay: Therapeutic effect on EV71-infected mice; type: in vivo, ICR mice; settings: 7 days
Description: 10-day-old SPF grade ICR mice (female:male 1:1) were used. A placebo group and a treatment group with Compound 1 were set, each group having 10 mice. The mice were infected with the virus by intraperitoneal injection. 2 hrs after infection, the mice were administered by intraperitoneal injection. The dosage of Compound 1 was set to 1 mg/kg body weight/day. The mice in the placebo group were injected with the same dose of normal saline, and the mice in each group were administered once a day for consecutive 7 days. From the day of virus infection, the observation was made twice a day for 14 days. The weight, symptoms and survival rate of the mice were recorded.

CAV16 = assay: In-vitro experiment against Coxsackievirus A16 (CAV16) (RD cells, MTT); type: cell-based, Coxsackievirus Virus A16 (CAV16)
Description: (§2) RD cells were seeded into a 96-well plate (10^4 cells/well), and infected with 100×TCID50 of CAV16 viruses. After 2 hrs, various concentrations of the derivative were added. […] Uninfected cells were also given various concentrations of the derivative to determine the CC50.

[3] = Cytotoxicity in uninfected RD cells (CC50, MTT); type: cell-based; settings: human, Table 1
Description: (§3) RD cells were seeded into a 96-well plate (10^4 cells/well), and infected with 100× TCID50 of EV71 viruses. After 2 hrs, various concentrations of the derivative were added. […] Uninfected cells were also given various concentrations of the derivative to determine the CC50.
as §2

EV71 [4] = assay: In-vitro experiment against EV71 virus (RD cells, MTT); type: cell-based
Description: as §3

Molecule	t1/2z ([1]; title: metabolite of Compound 6, individual animals 1-3, 1.5 mg/kg)	t1/2z Mean ± SD ([1]; title: metabolite of Compound 6, mean of 3)	mortality rate (EV71 [2]; 10-day-old ICR mice infected ip with EV71, 1 mg/kg body weight/day ip, observed 14 days, placebo 100%)	recovery of surviving mice (EV71 [2]; EV71-infected ICR mice, 1 mg/kg/day ip, after 14 days)	symptoms, weight loss and paralysis (EV71 [2]; EV71-infected ICR mice, 1 mg/kg/day ip, versus placebo)	pEC50 (CAV16; Coxsackievirus, RD cells infected with 100x TCID50 CAV16, compound added after 2 hrs, MTT at 48 hrs)	SI (CAV16; selectivity index, CAV16, RD cells)	CC50 at 48 h [3]	pEC50 (EV71 [4]; Enterovirus A, RD cells infected with 100x TCID50 EV71, compound added after 2 hrs, MTT at 48 hrs)	SI (EV71 [4]; selectivity index, EV71, RD cells)
1-(4-fluoro-phenoxyacetyl)-lycorine [Compound 6]	25.719 h and 14.311 h and 26.875 h	22.3 ± 6.94 h								
O=C(COc1ccccc1)OC1C(O)C=C2CCN3Cc4cc5c(cc4C1C23)OCO5 (stereo not shown) [Compound 1, 1-phenoxyacetyl-lycorine]			40%	the surviving mice recover to normal after 14 days	reduced symptoms, and significantly alleviated weight loss and paralysis	5.92	99.80	119 µM	5.79	72.41
